Measurements taken from patent publication US20150223452A1, “COMPOSITION COMPRISING A PESTICIDAL TERPENE MIXTURE AND A FUNGICIDE” (priority 2012, published 2015).
Where two headings read alike, the source gives them in different places.

Tests used:
Phytophthora infestans = assay type: in vivo; details: 3 days after inoculation
Sphaerotheca fuliginea = assay: Sphaerotheca test (cucumbers)/preventive; assay type: in vivo; details: 7 days after inoculation
Botrytis cinerea = assay: Botrytis test (beans)/preventive; details: 10 ppm a.i.; size of lesions 2 days after inoculation
Description: After the spray coating has dried on, 2 small pieces of agar covered with growth of Botrytis cinerea are placed on each leaf.
2 days after the inoculation, the size of the lesions on the leaves is evaluated.

[1] = system: green peach aphid (Myzus persicae); assay: Myzus persicae spray test; assay type: in vivo; details: 500 g ai/ha; mortality, Chinese cabbage leaf-disks
Description: (§1) Solvent: 78.0 parts by weight acetone • 1.5 parts by weight dimethylformamide
(§2) Emulsifier: 0.5 parts by weight alkylarylpolyglycolether
(§3) To produce a suitable preparation of active compound, 1 part by weight of active compound is mixed with the stated amount of solvent and emulsifier, and the concentrate is diluted with emulsifier-containing water to the desired concentration.
Chinese cabbage (Brassica pekinensis) leaf-disks infected with all instars of the green peach aphid (Myzus persicae) are sprayed with a preparation of the active ingredient of the desired concentration.
After the specified period of time, mortality in % is determined. 100% means that all aphids have been killed; 0% means that none of the aphids have been killed. The mortality values determined thus are recalculated using the Colby-formula (see above).

Venturia inaequalis = assay: Venturia test (apples)/preventive
[2] = system: two spotted spidermite (Tetranychus urticae); assay: Tetranychus urticae spray test, OP-resistant; assay type: in vivo; details: 500 g ai/ha; mortality, French beans
Description: as §1, §2, §3
French beans (Phaseolus vulgaris) which are heavily infested with all stages of the two spotted spidermite (Tetranychus urticae), are sprayed with a preparation of the active ingredient of the desired concentration.
After the specified period of time, mortality in % is determined. 100% means that all spider mites have been killed and 0% means that none of the spider mites have been killed. The mortality values determined thus are recalculated using the Colby-formula (see sheet 1).

CO/C=C(/C(=O)OC)c1ccccc1Oc1cc(Oc2ccccc2C#N)ncn1 [Azoxystrobin (F107), azoxystrobin]
Efficacy in % found (Phytophthora infestans; 0.5 ppm a.i.): 30%

CCCN(CC)CC1COC2(CCC(C(C)(C)C)CC2)O1 (stereo not drawn) [Spiroxamine (F46), spiroxamine]
Efficacy in % found (Sphaerotheca fuliginea; 50 ppm a.i.): 19%

fenhexamid [Fenhexamid (F16)]
Efficacy in % found (Botrytis cinerea): 880%

metalaxyl-M (mefenoxam) [Mefenoxam (F242)]
Efficacy in % found (Phytophthora infestans; 5 ppm a.i.): 3%

COC(=O)N(OC)c1ccccc1COc1ccn(-c2ccc(Cl)cc2)n1 [Pyraclostrobin (F121), pyraclostrobin]
Efficacy in % after 6 d [1]: 70%

N#Cc1c[nH]cc1-c1cccc2c1OC(F)(F)O2 [Fludioxonil (F248), fludioxonil]
Efficacy in % found (Sphaerotheca fuliginea; 50 ppm a.i.): 62%

Cc1nn(C)c(F)c1C(=O)Nc1ccccc1C(C)CC(C)C (stereo not drawn) [F84 penflufen, penflufen]
Efficacy in % found (Venturia inaequalis; 2 ppm a.i., first series): 0%

fosetyl-aluminium [Fosetyl-Al (F281)]
Efficacy in % after 6 d [2]: 70%

mancozeb [Mancozeb (F174)]
Efficacy in % found (Phytophthora infestans; 20 ppm a.i.): 45%

Cn1cc(C(=O)Nc2ccccc2-c2cc(F)c(F)c(F)c2)c(C(F)F)n1 [F72 fluxapyroxad, fluxapyroxad]
Efficacy in % found (Sphaerotheca fuliginea; 1 ppm a.i.): 29% | Efficacy in % found (Venturia inaequalis; 0.5 ppm a.i., first series): 43%

COCC(=O)N(c1c(C)cccc1C)C(C)C(=O)OC (stereo not drawn) [Metalaxyl (F241), metalaxyl]
Efficacy in % found (Phytophthora infestans; 5 ppm a.i.): 5%

CSC1=N[C@@](C)(c2ccccc2)C(=O)N1Nc1ccccc1 [Fenamidone (F114), fenamidone]
Efficacy in % found (Sphaerotheca fuliginea; 50 ppm a.i.): 20%

O=C(NCCc1ncc(C(F)(F)F)cc1Cl)c1ccccc1C(F)(F)F [F70 fluopyram, fluopyram]
Efficacy in % found (Venturia inaequalis; 4 ppm a.i., first series): 4%

CC(C)Oc1cccc(NC(=O)c2ccccc2C(F)(F)F)c1 [Flutolanil (F71), flutolanil]
Efficacy in % found (Venturia inaequalis; 100 ppm a.i., second series): 4%
